Assays:
Format in all cases: functional
Rattus norvegicus [1] = species on record: Rattus norvegicus; assay: Inhibition of insulin release from rat pancreatic islets incubated in the presence of glucose ([…]) at concentration of 10 uM
Rattus norvegicus [2] = species on record: Rattus norvegicus; assay: Inhibition of insulin release from rat pancreatic islets incubated in the presence of glucose ([…]) at concentration of 100 uM
Rattus norvegicus [3] = species on record: Rattus norvegicus; assay: Inhibition of insulin release from rat pancreatic islets incubated in the presence of glucose ([…]) at concentration of 50 uM
Rattus norvegicus [4] = species on record: Rattus norvegicus; assay: Inhibition of insulin release from rat pancreatic islets incubated in the presence of glucose ([…]) at concentration of 1 uM
Rattus norvegicus [5] = species on record: Rattus norvegicus; assay: Inhibition of insulin release from rat pancreatic islets incubated in the presence of glucose ([…]) at concentration of 500 uM

Row | SMILES | Secretion (Rattus norvegicus [1]) [%] | Secretion (Rattus norvegicus [2]) [%] | Secretion (Rattus norvegicus [3]) [%] | Secretion (Rattus norvegicus [4]) [%] | Secretion (Rattus norvegicus [5]) [%]
1 | CC(C)CNC1=NS(=O)(=O)c2cnccc2N1 | 71.8 | 10.2 | 23.4 | 84.2 | 9.7
2 | CCCNC1=NS(=O)(=O)c2cnccc2N1 | 87.3 | 21.9 | 57.7 | 97.1 | 9
3 | CC(C)NC1=NS(=O)(=O)c2cnccc2N1 | 55.3 | 18.4 | 42.5 | 110.3 | 8.8
4 | CC(C)C(C)NC1=NS(=O)(=O)c2cnccc2N1 (configuration not stated) | 13.7 | 8.8 | 8.6 | 70.5 | 8.4
5 | CCCCNC1=NS(=O)(=O)c2cnccc2N1 | 82 | 32.5 | 38.6 | 83.7 | 9
6 | CC1=Nc2ccc(Cl)cc2S(=O)(=O)N1 [DIAZOXIDE] | 70 | 14 | 28.8 | 78.9 | 8.5
7 | CCC(C)NC1=NS(=O)(=O)c2cnccc2N1 (configuration not stated) | 49 | 7.1 | 9.4 | 97.8 | 9.4
8 | NC1=NS(=O)(=O)c2cnccc2N1 | – | – | 104.1 | – | –
9 | CC(C)C(C)NC1=NS(=O)(=O)c2cc(Cl)ccc2N1 (configuration not stated) | 62.7 | 6.5 | 11 | 88.9 | 4.6
10 | O=S1(=O)N=C(NN2CCOCC2)Nc2ccncc21 | – | – | 94.8 | – | –
11 | O=S1(=O)N=C(NC2CCCC2)Nc2ccncc21 | 71.1 | 9.2 | 31.5 | 82.8 | 4.4
12 | O=S1(=O)N=C(NC2CCCCC2)Nc2ccncc21 | 64.4 | 18.4 | 40.5 | 74.4 | 6.2

From ChEMBL document CHEMBL1127056, “3-(Alkylamino)-4H-pyrido[4,3-e]-1,2,4-thiadiazine 1,1-dioxides as powerful inhibitors of insulin release from rat pancreatic B-cells: a new class of potassium channel openers?” (1993)
